Laboratory results published in patent US10568879B2 (GALAPAGOS NV, priority 2015, dated 2020).
Read-outs that look alike come from different tables or passages of the source.

Columns and labels:
GPR84 = molecular target: T1, GPR84 (Homo sapiens, UniProt Q9NQS5); experiment: GPR84 [35S]GTPγS binding assay; format: biochemical; conditions: 3,3′-diindolylmethane at EC80; membranes from stable cell line over expressing GPR84
T1 construct: expressed in transfected cells
Method in brief: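 Antagonist-mode [35S]GTPγS binding on membranes from a GPR84-overexpressing stable line (GDP-preincubated), stimulated with 3,3′-diindolylmethane at EC80. Buffer 20 mM Tris pH 7.5, 5 mM MgCl2, 250 mM NaCl, saponin; 0.1 nM [35S]GTPγS, 90 min at room temperature, SPA bead read-out.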

human neutrophils = experiment: Human neutrophil migration assay; format: cell-based; conditions: Homo sapiens, Neutrophil, read-out: Human neutrophil migration IC50
Procedure: The activity of GPR84 agonists and antagonists can therefore be assayed in a human neutrophil migration assay. The human neutrophil migration assay makes use of freshly isolated human neutrophils from buffy coats that are subsequently used in a functional chemotaxis assay setup. […] After 1 h of incubation at 37° C. and 5% CO2, the number of migrated neutrophils in the lower compartment can be quantified by measuring the ATP content using ATPlite™ Luminescence Assay System. A human buffy coat suspension is diluted with an equal volume of ice cold DPBS. 20 mL of the diluted buffy coat suspension is gently mixed with 4 mL of ACD buffer (140 mM citric acid, 200 mM sodium citrate and 220 mM dextrose). Then, 12 mL of a 6% dextran/0.9% NaCl solution (15 g dextran T2000 and 2.25 g NaCl dissolved in 250 mL H2O) is added to the mixture and the samples are inverted gently up to 20 times. The total volume is transferred to a new recipient and incubated at room temperature to allow sedimentation of red blood cells. The yellowish upper fraction is then transferred to a clean centrifugation tube and centrifuged for 12 min at 1300 rpm and 4° C. After centrifugation, the supernatant is discarded and the remaining cell pellet is rapidly resuspended in 12 mL of ice-cold H2O to perform a red blood cell lysis by osmotic burst. After 20 seconds, 4 mL of ice-cold 0.6 M KCl is added to restore salt concentration. Samples are mixed carefully and centrifuged for 6 min at 1300 rpm and 4° C. The supernatant is discarded and the red blood cell lysis procedure is repeated one more time. […] A neutrophil cell suspension of 8.9×10^6 cells per mL is prepared in chemotaxis buffer and 180 μL per well is plated in a 96-well V-bottom plate. 20 μL of test compound solution in chemotaxis buffer is added to the 180 μL cell suspension. The mixture is incubated at room temperature for 30 min with intermediate gentle resuspension of the cells after 15 min. […] After 1 h at 37° C., 5% CO2 in a humidified incubator, the upper plate of the Transwell® system is gently removed. […] After incubation, 270 μL of cell lysate is then transferred onto a white 96-well plate for quantification by a luminescence plate reader. The relative luminescent signal measured is considered linearly related to the number of cells having migrated from the upper compartment into the receiver well.

[1] = embelin at EC80 as chemotactic agent, 1 h at 37° C.

T1 sequence (Q9NQS5 whole entry): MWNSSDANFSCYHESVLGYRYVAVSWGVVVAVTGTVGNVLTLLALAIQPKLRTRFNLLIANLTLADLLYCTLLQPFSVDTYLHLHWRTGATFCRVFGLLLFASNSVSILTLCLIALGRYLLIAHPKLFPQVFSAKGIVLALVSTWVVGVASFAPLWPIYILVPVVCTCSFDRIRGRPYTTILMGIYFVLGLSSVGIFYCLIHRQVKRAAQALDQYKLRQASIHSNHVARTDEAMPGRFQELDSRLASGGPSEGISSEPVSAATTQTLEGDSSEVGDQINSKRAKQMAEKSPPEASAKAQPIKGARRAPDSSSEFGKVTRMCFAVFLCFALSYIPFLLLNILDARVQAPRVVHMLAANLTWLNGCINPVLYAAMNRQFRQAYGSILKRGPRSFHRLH

Structure (SMILES): Cc1c2n(c(NC[C@@H]3COCCO3)cc1=O)CCc1cc(OCC(F)(F)F)ccc1-2 [Compound 36, 4-[[(2R)-1,4-dioxan-2-yl]methylamino]-1-mehtyl-9-(2,2,2-trifluoroethoxy)-6,7-dihydrobenzo[a]quinolizin-2-one]
- IC50 (GPR84): 0.01 to 100 nM
- IC50 (human neutrophils; [1]): 100 to 500 nM

Structure (SMILES): CCn1cc(-c2ccc3c(c2)CCn2c(OC[C@@H]4COCCO4)cc(=O)c(C)c2-3)cn1 [Compound 40, 4-[[(2S)-1,4-dioxan-2-yl]methoxy]-9-(1-ethylpyrazol-4-yl)-1-methyl-6,7-dihydrobenzo[a]quinolizin-2-one]
- IC50 (GPR84): 0.01 to 100 nM
- IC50 (human neutrophils; 1 h): 0.01 to 100 nM

Structure (SMILES): Cc1c2n(c(OC[C@@H]3COCCO3)cc1=O)CCc1cc(OCC3CCOCC3)ccc1-2 [Compound 30, 4-[[(2S)-1,4-dioxan-2-yl]methoxy]-1-methyl-9-(tetrahydropyran-4-ylmethoxy)-6,7-dihydrobenzo[b]quinolizin-2-one]
- IC50 (GPR84): 0.01 to 100 nM
- IC50 (human neutrophils; [1]): 0.01 to 100 nM

Structure (SMILES): COc1ccc2c(c1OC)CCn1c(NCC3CCCCO3)cc(=O)c(C)c1-2 (centres unmarked) [Compound 16, 8,9-dimethoxy-1-methyl-4-(tetrahydropyran-2-ylmethylamino)-6,7-dihydrobenzo[a]quinolizin-2-one]
- IC50 (GPR84): 0.01 to 100 nM
- IC50 (human neutrophils; [1]): 100 to 500 nM

Structure (SMILES): Cc1c2n(c(OC[C@@H]3COCCO3)cc1=O)CCc1cc(N3CC(F)C3)ccc1-2 [Compound 91, 4-[[(2S)-1,4-dioxan-2-yl]methoxy]-9-(3-fluoroazetidin-1-yl)-1-methyl-6,7-dihydrobenzo[a]quinolizin-2-one]
- IC50 (GPR84): 0.01 to 100 nM
- IC50 (human neutrophils; [1]): 100 to 500 nM

Structure (SMILES): COc1ccc2c(c1OC)CCn1c(NCC3COCCO3)cc(=O)c(C)c1-2 (centres unmarked) [Compound 17, 4-(1,4-dioxan-2-ylmethylamino)-8,9-dimethoxy-1-methyl-6,7-dihydrobenzo[a]quinolizin-2-one]
- IC50 (GPR84): 0.01 to 100 nM
- IC50 (human neutrophils; [1]): 100 to 500 nM

Structure (SMILES): Cc1c2n(c(OC[C@@H]3COCCO3)cc1=O)CCc1cc(OCc3ccccc3)ccc1-2 [Compound 33, 9-benzyloxy-4-[[(2S)-1,4-dioxan-2-yl]methoxy]-1-methyl-6,7-dihydrobenzo[a]quinolizin-2-one]
- IC50 (GPR84): 0.01 to 100 nM
- IC50 (human neutrophils; [1]): 0.01 to 100 nM

Structure (SMILES): COC(=O)N1CC=C(c2ccc3c(c2)CCn2c(OC[C@@H]4COCCO4)cc(=O)c(C)c2-3)CC1 [Compound 76, methyl 4-[4-[[(2S)-1,4-dioxan-2-yl]methoxy]-1-methyl-2-oxo-6,7-dihydrobenzo[a]quinolizin-9-yl]-3,6-dihydro-2H-pyridine-1-carboxylate]
- IC50 (GPR84): 0.01 to 100 nM
- IC50 (human neutrophils; [1]): 0.01 to 100 nM

Structure (SMILES): Cc1c2n(c(NCC3CCCCO3)cc1=O)CCc1cc(OCC(F)F)ccc1-2 (centres unmarked) [Compound 13, 9-(2,2-difluoroethoxy)-1-methyl-4-(tetrahydropyran-2-ylmethylamino)-6,7-dihydrobenzo[a]quinolizin-2-one]
- IC50 (GPR84): 100 to 500 nM
- IC50 (human neutrophils; [1]): 100 to 500 nM

Structure (SMILES): COc1c(OCC(F)F)ccc2c1CCn1c(NCC3COCCO3)cc(=O)c(C)c1-2 (centres unmarked) [Compound 23, 9-(2,2-Difluoro-ethoxy)-4-[([1,4]dioxan-2-ylmethyl)-amino]-8-methoxy-1-methyl-6,7-dihydro-pyrido[2,1-a]isoquinolin-2-one]
- IC50 (GPR84): 0.01 to 100 nM
- IC50 (human neutrophils; 1 h): 0.01 to 100 nM

Structure (SMILES): Cc1c2n(c(OC[C@@H]3COCCO3)cc1=O)CCc1cc(OCC(F)F)ccc1-2 [Compound 61, 9-(2,2-difluoroethoxy)-4-[[(2S)-1,4-dioxan-2-yl]methoxy]-1-methyl-6,7-dihydrobenzo[a]quinolizin-2-one]
- IC50 (GPR84): 0.01 to 100 nM
- IC50 (human neutrophils; [1]): 0.01 to 100 nM

Structure (SMILES): CCOC(=O)N1CCC(c2ccc3c(c2)CCn2c(OC[C@@H]4COCCO4)cc(=O)c(C)c2-3)CC1 [Compound 81, ethyl 4-[4-[[(2S)-1,4-dioxan-2-yl]methoxy]-1-methyl-2-oxo-6,7-dihydrobenzo[a]quinolizin-9-yl]piperidine-1-carboxylate]
- IC50 (GPR84): 0.01 to 100 nM
- IC50 (human neutrophils; [1]): 0.01 to 100 nM

Structure (SMILES): Cc1c2n(c(OC[C@@H]3COCCO3)cc1=O)CCc1cc(C3CCN(C(=O)OCC(F)(F)F)CC3)ccc1-2 [Compound 83, 2,2,2-trifluoroethyl 4-[4-[[(2S)-1,4-dioxan-2-yl]methoxy]-1-methyl-2-oxo-6,7-dihydrobenzo[a]quinolizin-9-yl]piperidine-1-carboxylate]
- IC50 (GPR84): 0.01 to 100 nM
- IC50 (human neutrophils; [1]): 0.01 to 100 nM

Structure (SMILES): Cc1c2n(c(OC[C@@H]3COCCO3)cc1=O)CCc1cc(N3CCN(C(=O)C4CC4)CC3)ccc1-2 [Compound 69, 9-[4-(cyclopropanecarbonyl)piperazin-1-yl]-4-[[(2S)-1,4-dioxan-2-yl]methoxy]-1-methyl-6,7-dihydrobenzo[a]quinolizin-2-one]
- IC50 (GPR84): 0.01 to 100 nM
- IC50 (human neutrophils; [1]): 0.01 to 100 nM

Structure (SMILES): COc1ccc2c(c1OC)CCn1c(OCC3CCCO3)cc(=O)c(C)c1-2 (centres unmarked) [Compound 28, 8,9-dimethoxy-1-methyl-4-(tetrahydrofuran-2-ylmethoxy)-6,7-dihydrobenzo[b]quinolizin-2-one]
- IC50 (GPR84): 0.01 to 100 nM
- IC50 (human neutrophils; [1]): 0.01 to 100 nM

Structure (SMILES): Cc1c2n(c(OC[C@@H]3COCCO3)cc1=O)CCc1cc(C3=CCN(C(=O)OC(C)C)CC3)ccc1-2 [Compound 78, isopropyl 4-[4-[[(2S)-1,4-dioxan-2-yl]methoxy]-1-methyl-2-oxo-6,7-dihydrobenzo[a]quinolizin-9-yl]-3,6-dihydro-2H-pyridine-1-carboxylate]
- IC50 (GPR84): 0.01 to 100 nM
- IC50 (human neutrophils; [1]): 0.01 to 100 nM

Structure (SMILES): Cc1c2n(c(OC[C@@H]3COCCO3)cc1=O)CCc1cc(C3CCOCC3)ccc1-2 [Compound 41, 4-[[(2S)-1,4-dioxan-2-yl]methoxy]-1-methyl-9-tetrahydropyran-4-yl-6,7-dihydrobenzo[a]quinolizin-2-one]
- IC50 (GPR84): 0.01 to 100 nM
- IC50 (human neutrophils; [1]): 0.01 to 100 nM

Structure (SMILES): Cc1c2n(c(NC[C@@H]3COCCO3)cc1=O)CCc1cc(OCC(F)F)ccc1-2 [Compound 35, 9-(2,2-difluoroethoxy)-4-[[(2R)-1,4-dioxan-2-yl]methylamino]-1-methyl-6,7-dihydrobenzo[b]quinolizin-2-one]
- IC50 (GPR84): 100 to 500 nM
- IC50 (human neutrophils; [1]): 0.01 to 100 nM

Structure (SMILES): CCc1c2n(c(NCC3CCCO3)cc1=O)CCc1cc(OCC(F)(F)F)ccc1-2 (centres unmarked) [Compound 27, 1-ethyl-4-(tetrahydrofuran-2-ylmethylamino)-9-(2,2,2-trifluoroethoxy)-6,7-dihydrobenzo[a]quinolizin-2-one]
- IC50 (GPR84): 500 to 1000 nM
- IC50 (human neutrophils; [1]): 100 to 500 nM

Structure (SMILES): Cc1c2n(c(OC[C@@H]3COCCO3)cc1=O)CCc1cc(N3CC(n4cccn4)C3)ccc1-2 [Compound 95, 4-[[(2S)-1,4-dioxan-2-yl]methoxy]-1-methyl-9-(3-pyrazol-1-ylazetidin-1-yl)-6,7-dihydrobenzo[a]quinolizin-2-one]
- IC50 (GPR84): 0.01 to 100 nM
- IC50 (human neutrophils; [1]): 100 to 500 nM

Structure (SMILES): CCOC(=O)N1CC=C(c2ccc3c(c2)CCn2c(OC[C@@H]4COCCO4)cc(=O)c(C)c2-3)CC1 [Compound 77, ethyl 4-[4-[[(2S)-1,4-dioxan-2-yl]methoxy]-1-methyl-2-oxo-6,7-dihydrobenzo[a]quinolizin-9-yl]-3,6-dihydro-2H-pyridine-1-carboxylate]
- IC50 (GPR84): 0.01 to 100 nM
- IC50 (human neutrophils; [1]): 0.01 to 100 nM

Structure (SMILES): COc1ccc2c(c1OC)CCn1c(OCC3CCCCO3)cc(=O)c(C)c1-2 (centres unmarked) [Compound 29, 8,9-dimethoxy-1-methyl-4-(tetrahydropyran-2-ylmethoxy)-6,7-dihydrobenzo[b]quinolizin-2-one]
- IC50 (GPR84): 0.01 to 100 nM
- IC50 (human neutrophils; [1]): 0.01 to 100 nM

Structure (SMILES): Cc1c2n(c(OC[C@@H]3COCCO3)cc1=O)CCc1cc(OS(=O)(=O)C(F)(F)F)ccc1-2 [Compound 37, [4-[[(2S)-1,4-dioxan-2-yl]methoxy]-1-methyl-2-oxo-6,7-dihydrobenzo[a]quinolizin-9-yl] trifluoromethanesulfonate]
- IC50 (GPR84): 0.01 to 100 nM
- IC50 (human neutrophils; [1]): 0.01 to 100 nM

Structure (SMILES): Cc1c2n(c(OC[C@@H]3COCCO3)cc1=O)CCc1cc(OCc3ccccn3)ccc1-2 [Compound 31, 4-[[(2S)-1,4-dioxan-2-yl]methoxy]-1-methyl-9-(2-pyridylmethoxy)-6,7-dihydrobenzo[b]quinolizin-2-one]
- IC50 (GPR84): 0.01 to 100 nM
- IC50 (human neutrophils; [1]): 0.01 to 100 nM

Structure (SMILES): COc1ccc2c(c1O)CCn1c(NCC3COCCO3)cc(=O)cc1-2 (centres unmarked) [Compound 22, 4-(1,4-dioxan-2-ylmethylamino)-8-hydroxy-9-methoxy-6,7-dihydrobenzo[a]quinolizin-2-one]
- IC50 (GPR84): > 1000 nM
- IC50 (human neutrophils; [1]): > 1000 nM
